Test results taken from US12025619B2, “Methods and systems for detecting prostaglandins by LC-MS/MS” (Laboratory Corporation of America Holdings, priority 2020, dated 2024).
Several values for one entry are separate records, joined by “and”; a condition that tells them apart may be missing. Equal entries are not always repeated.

How the values were obtained:
[1] = Autosampler stability, urine assay; type: physicochemical; conditions: human urine assay, stored refrigerated for up to 3 days and 8 hours
Protocol: Autosampler stability. […] To validate autosampler stability a batch containing two sets of calibrators and QCs was processed as normal. After completion of assay processing the first set of calibrators, QCs, and normal urines was injected and analyzed. After analysis the assay batch was stored refrigerated in the autosampler prior to reinjection of the first set of samples and first time injection of the second set of calibrators and QCs. The 96-well plates containing the processed assay were stored refrigerated in the autosampler for approximately 3 days, 8 hours, and 36 minutes before injection was completed for all samples. Post-storage recoveries were based on target concentrations for the stored, first time injection samples. Reinjected samples were compared to initial injection results to determine recoveries. Autosampler study results met acceptance criteria. […] Assay batches stored refrigerated for up to 3 days and 8 hours were stable and suitable for first time injection or re-injection to determine Prostaglandin D2 concentrations in human urine.

human ovarian tumor cell = conditions: read-out: IC50, inhibition of human ovarian tumor cell proliferation; cited from earlier work
[2] = Autosampler stability, serum assay; type: physicochemical; conditions: human serum assay, stored refrigerated for up to 3 days and 22 hours
Protocol: Autosampler stability. […] To validate autosampler stability a batch containing two sets of calibrators and QCs was processed as normal. After completion of assay processing the first set of calibrators and QCs was injected and analyzed. After analysis the assay batch was stored refrigerated in the autosampler prior to reinjection of the first set of samples and first time injection of the second set of calibrators and QCs. The 96-well plates containing the processed assay were stored refrigerated in the autosampler for approximately 3 days, 22 hours, and 16 minutes before injection was completed for all samples. Post-storage recoveries were based on target concentrations for the stored, first time injection samples. Reinjected samples were compared to initial injection results to determine recoveries. Autosampler study results met acceptance criteria. Assay batches stored refrigerated for up to 3 days and 22 hours are stable and suitable for first time injection or re-injection to determine Prostaglandin D2 concentrations in human serum.

[3] = Short-term and freeze/thaw stability in human serum; type: physicochemical; conditions: for Mean concentration at stability time point / Measured Concentration (replicates): Donors 1-3; for Measured Concentration (replicates): human serum
Protocol: Serum samples were collected into red top tubes and frozen immediately. Specimens were stored according to the following conditions: • Short Term Storage • Serum Frozen (≤−10° C. and ≤−55° C.): 7 days • Serum Refrigerated (2-8° C.): Strictly frozen storage.
Short-term and freeze/thaw stability. Sample stability was confirmed by testing human serum from three individual donors that was stored at each of the different conditions likely to be encountered in sample handling and laboratory analysis. […] An additional set of the freshly collected serum underwent up to 6 freeze/thaw cycles prior to stability testing. All serum stability samples and baseline stored samples were tested with freshly prepared calibrators. All testing was performed in triplicate.

[4] = Short-term and freeze/thaw stability of PGD2 in urine; type: physicochemical, human
Protocol: Urine samples were collected into plastic containers. Specimens were stored according to the following conditions: • Short Term Storage • Urine Frozen (≤−10° C. and ≤−55° C.): 8 days • Urine Refrigerated (2-8° C.): 3 days • Urine Room Temperature (15-30° C.): 3 days • Urine Freeze/Thaw (≤−10° C.): 6 Cycles • Long Term Storage • Urine Frozen (≤−10° C.): Stability testing in process • Shipping Conditions: • Urine Frozen (≤−10° C.):—on dry ice PGD2 was stable for at least 3 days at 4° C. and at room temperature and 8 days frozen (≤−10° C. or ≤−55° C.). PGD2 was stable for at least 6 freeze-thaw cycles (≤−10° C. or ≤−55° C.). [table]

[5] = Calibrator freeze/thaw stability; type: physicochemical; conditions: for replicates within 85-115% of the target: calibrator matrix
Protocol: Calibrator freeze/thaw stability. Calibrator freeze/thaw stability was examined by analyzing using an accuracy sample made in calibrator amatrix (A4 at 250 pg/mL). The accuracy sample underwent up to 6 freeze/thaw cycles prior to stability testing. Freeze/thaw cycles were performed as per Example 3. Times and temperatures were recorded on the incubation study stability forms. All testing was performed in triplicate. The target concentration for the accuracy sample was used to define acceptable ranges for measured concentrations after freeze/thaw cycles. For the first five freeze/thaw cycles, 100% of replicates were within 85-115% of the target (TABLE 15). For the sixth freeze/thaw cycle >60% of replicates were within 85-115% of the target (TABLE 15). […] Prostaglandin D2 is stable in calibrator matrix after 5 freeze/thaw cycles (6 total thaws).

[6] = Freeze/Thaw (<−10° C.), 1 Cycle (2 Thaws)
[7] = Freeze/Thaw (<−10° C.), 2 Cycles (3 Thaws)
[8] = Refrigerated (2-8° C.), 3.5 Hours

Autosampler stability of processed assay batches [1]: stable
Autosampler stability of processed assay batches [2]: stable
% of replicates within 85-115% of mean at baseline [3, 6]: 100.00%
% of replicates within 85-115% of mean at baseline [3, 7]: 77.78%
% of replicates within 85-115% of mean at baseline ([3]; Freeze/Thaw (<−10° C.), 3 Cycles (4 Thaws)): 0.00%
% of replicates within 85-115% of mean at baseline ([3]; Freeze/Thaw (<−10° C.), 6 Cycles (7 Thaws)): 0.00%
% of replicates within 85-115% of mean at baseline ([3]; Frozen (<−55° C.), 7 Days): 100.00%
% of replicates within 85-115% of mean at baseline ([3]; Frozen (≤−10° C.), 7 Days): 100.00%
% of replicates within 85-115% of mean at baseline ([3]; Refrigerated (2-8° C.), 1 Day): 0.00%
% of replicates within 85-115% of mean at baseline ([3]; Refrigerated (2-8° C.), 3 Days): 0.00%
Mean concentration at stability time point ([3]; Refrigerated (2-8° C.), 3 Days): 3.83 pg/mL and 4.93 pg/mL and 3.33 pg/mL
% of replicates within 85-115% of mean at baseline [3, 8]: 88.89%
% of replicates within 85-115% of mean at baseline ([3]; Refrigerated (2-8° C.), 7 Hours): 0.00%
% of replicates within 85-115% of mean at baseline ([3]; Room Temp (15-30° C.), 1 Day): 0.00%
Mean concentration at stability time point ([3]; Room Temp (15-30° C.), 1 Day): 6.95 pg/mL and 4.42 pg/mL and 4.22 pg/mL
% of replicates within 85-115% of mean at baseline ([3]; Room Temp (15-30° C.), 3 Days): 0.00%
Mean concentration at stability time point ([3]; Room Temp (15-30° C.), 3 Days): 9.17 pg/mL and 6.27 pg/mL and 5.78 pg/mL
% of replicates within 85-115% of mean at baseline ([3]; Room Temp (15-30° C.), 3.5 Hours): 0.00%
% of replicates within 85-115% of mean at baseline ([3]; Room Temp (15-30° C.), 7 Hours): 0.00%
Short-term and freeze/thaw stability study result ([3]; frozen and refrigerated serum): did meet acceptance criteria
Short-term stability study result ([3]; serum stored at room temperature): did not meet acceptance criteria
stable for at least (time) ([4]; 4° C.): at least 3 days
stable for at least (time) ([4]; frozen (≤−10° C. or ≤−55° C.)): ≥ 8 days
stable for at least (time) ([4]; room temperature): at least 3 days
stable for at least (freeze-thaw cycles) ([4]; ≤−10° C. or ≤−55° C.): at least 6 freeze-thaw cycles
stable in calibrator matrix after (freeze/thaw cycles) ([5]; accuracy sample A4 at 250 pg/mL): 5 freeze/thaw cycles
replicates within 85-115% of the target ([5]; first five freeze/thaw cycles): 100%
replicates within 85-115% of the target ([5]; sixth freeze/thaw cycle): > 60%
Structure (SMILES): CCCCC[C@H](O)/C=C/[C@H]1C(=O)C[C@H](O)[C@@H]1C/C=C\CCCC(=O)O [PGD2, prostaglandin D2]
IC50 (human ovarian tumor cell): 6.8 µM
Measured Concentration (replicates) [3, 6]: 23.2 pg/mL and 95.8 pg/mL and 52.9 pg/mL and 21.1 pg/mL and 107 pg/mL (2×) and 52.4 pg/mL and 23.4 pg/mL and 60.5 pg/mL
Measured Concentration (replicates) [3, 7]: 22.1 pg/mL and 93.3 pg/mL and 19.4 pg/mL and 51.4 pg/mL and 19.7 pg/mL and 92.0 pg/mL and 51.2 pg/mL
Measured Concentration (replicates) ([3]; Frozen (<−55° C.), 7 Days): 24.5 pg/mL (3×) and 119 pg/mL and 65.7 pg/mL and 121 pg/mL and 66.8 pg/mL and 122 pg/mL and 67.9 pg/mL
Measured Concentration (replicates) ([3]; Frozen (≤−10° C.), 7 Days): 23.3 pg/mL (2×) and 101 pg/mL and 53.8 pg/mL and 113 pg/mL (2×) and 57.9 pg/mL and 24.2 pg/mL and 62.3 pg/mL
Measured Concentration (replicates) [3, 8]: 103 pg/mL and 57.9 pg/mL and 20.9 pg/mL and 107 pg/mL and 57.6 pg/mL and 19.9 pg/mL and 93.5 pg/mL and 54.7 pg/mL
Measured Concentration (replicates) ([3]; day of collection, time 0): 21.9 pg/mL and 104 pg/mL and 60.4 pg/mL and 22.0 pg/mL and 107 pg/mL and 59.1 pg/mL and 24.7 pg/mL and 111 pg/mL and 55.6 pg/mL
